Assay results from patent publication US20230365537A1, “POLO LIKE KINASE 4 INHIBITORS” (ORIC Pharmaceuticals, Inc., priority 2021, published 2023).

What was measured:
CHP-134 cells = experiment: CHP134 CellTiter-Glo (CTG) Assay; type: cell-based; conditions: Homo sapiens, CHP-134, 120 h, 5 days, viable cells by CellTiter-Glo
In short: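 CHP-134 cells seeded at 200 cells/well for 16 h, then given nine 1:3 serial dilutions in quadruplicate at 37° C, 5% CO2. Viable cells measured by CellTiter-Glo luminescence after 5 days; IC50 calculated from curves.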

[1] = target: human recombinant Aurora B (Homo sapiens (Human), UniProt Q96GD4); experiment: Aurora B Kinase Biochemical Assay (ADP-Glo); conditions: ratio of Aurora B IC50 to PLK4 IC50 (selectivity)
In short: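 Recombinant human Aurora B (20 nM in pH 7.5 HEPES buffer with MgCl2, EGTA, DTT, Brij-35, BSA) preincubated with compound 15 min at RT. ADP formed quantified by ADP-Glo luminescence after ATP depletion (40 min) and detection (30 min). IC50 from four-parameter non-linear regression.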

[2] = target: human recombinant Aurora A (Homo sapiens (Human), UniProt O14965); experiment: Aurora A Kinase Biochemical Assay (ADP-Glo); conditions: ratio of Aurora A IC50 to PLK4 IC50 (selectivity)
human recombinant PLK4 = human recombinant PLK4 (Homo sapiens (Human), UniProt O00444); experiment: PLK4 Biochemical Assay (ADP-Glo); conditions: 0.5 nM PLK4, 8.0 µM ATP, 4.7 µM MBP, 6 hours at RT
In short: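 Recombinant human PLK4 (added at 1.0 nM) was preincubated 15 min at RT with compound in 50 mM HEPES pH 7.5, 10 mM MgCl2, 1 mM EGTA, 1 mM DTT, 0.01% Brij-35, 0.01% BSA. ADP formed was detected by ADP-Glo luminescence (40 min ATP depletion, 30 min detection). IC50 came from a four-parameter fit.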

human recombinant Aurora A, sequence (O14965 whole entry): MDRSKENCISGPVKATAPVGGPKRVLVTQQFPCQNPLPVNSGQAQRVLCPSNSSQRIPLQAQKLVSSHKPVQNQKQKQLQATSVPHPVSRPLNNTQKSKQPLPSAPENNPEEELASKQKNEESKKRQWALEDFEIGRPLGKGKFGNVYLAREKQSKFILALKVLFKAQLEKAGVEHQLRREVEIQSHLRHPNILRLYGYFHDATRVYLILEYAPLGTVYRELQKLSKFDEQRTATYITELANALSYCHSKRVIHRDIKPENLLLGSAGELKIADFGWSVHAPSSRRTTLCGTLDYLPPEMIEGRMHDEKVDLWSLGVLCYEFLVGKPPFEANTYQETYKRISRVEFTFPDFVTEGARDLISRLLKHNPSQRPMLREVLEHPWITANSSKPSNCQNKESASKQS
human recombinant PLK4, sequence (O00444 whole entry): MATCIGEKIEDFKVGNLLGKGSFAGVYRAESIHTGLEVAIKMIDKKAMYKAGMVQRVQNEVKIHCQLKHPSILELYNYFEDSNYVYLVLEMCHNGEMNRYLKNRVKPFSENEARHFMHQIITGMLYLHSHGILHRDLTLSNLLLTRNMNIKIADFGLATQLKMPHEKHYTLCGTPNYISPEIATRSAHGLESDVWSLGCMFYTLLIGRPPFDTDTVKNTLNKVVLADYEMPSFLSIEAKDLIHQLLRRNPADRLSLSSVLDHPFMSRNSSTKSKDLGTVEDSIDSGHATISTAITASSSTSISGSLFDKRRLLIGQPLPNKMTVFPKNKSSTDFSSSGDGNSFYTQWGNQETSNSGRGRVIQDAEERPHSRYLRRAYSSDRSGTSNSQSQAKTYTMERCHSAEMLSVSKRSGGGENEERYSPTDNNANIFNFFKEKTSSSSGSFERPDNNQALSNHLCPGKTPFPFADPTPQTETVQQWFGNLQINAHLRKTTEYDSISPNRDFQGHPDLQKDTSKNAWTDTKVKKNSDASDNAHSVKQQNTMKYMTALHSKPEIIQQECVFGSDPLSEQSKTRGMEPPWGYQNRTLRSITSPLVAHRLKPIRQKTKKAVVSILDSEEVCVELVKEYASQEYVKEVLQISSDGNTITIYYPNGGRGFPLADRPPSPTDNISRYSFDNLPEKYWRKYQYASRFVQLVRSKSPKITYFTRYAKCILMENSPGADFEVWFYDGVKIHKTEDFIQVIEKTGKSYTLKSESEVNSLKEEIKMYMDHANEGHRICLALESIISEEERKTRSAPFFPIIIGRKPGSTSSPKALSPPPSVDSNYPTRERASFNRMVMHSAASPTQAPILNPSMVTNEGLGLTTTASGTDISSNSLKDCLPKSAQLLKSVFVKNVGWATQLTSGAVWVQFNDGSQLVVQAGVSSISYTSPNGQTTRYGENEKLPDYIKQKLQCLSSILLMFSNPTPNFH
human recombinant Aurora B, sequence (Q96GD4 whole entry): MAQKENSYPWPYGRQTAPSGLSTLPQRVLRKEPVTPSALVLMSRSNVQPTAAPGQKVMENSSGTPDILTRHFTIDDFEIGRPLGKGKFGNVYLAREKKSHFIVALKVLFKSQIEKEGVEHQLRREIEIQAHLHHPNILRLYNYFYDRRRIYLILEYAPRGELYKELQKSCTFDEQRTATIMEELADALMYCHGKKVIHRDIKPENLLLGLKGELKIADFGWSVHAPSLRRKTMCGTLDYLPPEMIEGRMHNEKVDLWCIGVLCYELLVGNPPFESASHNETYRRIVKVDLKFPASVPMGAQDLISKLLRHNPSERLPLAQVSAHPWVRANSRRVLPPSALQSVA

Row | Structure (SMILES) | IC50 (CHP-134 cells) | [Aurora B IC50 (nM)]/[PLK4 IC50 (nM)] [1] | [Aurora A IC50 (nM)]/[PLK4 IC50 (nM)] [2] | IC50 (human recombinant PLK4)
1 | COc1ccc2c(c1)[C@]1(C[C@H]1c1ccc3c(Nc4ccnc(N5CCOCC5)c4OC)n[nH]c3c1)C(=O)N2 [Example 95, (1R,2S)-5′-methoxy-2-(3-{[3-methoxy-2-(morpholin-4-yl)pyridin-4-yl]amino}-1H-induzol-6-yl)spiro[cyclopropane-1,3′-indol]-2′(1′H)-one] | 319 nM | 54.26 | 2386.677 | 1.31 nM
2 | COc1ccc2c(c1)[C@]1(C[C@H]1c1ccc3c(Nc4nc(C)ncc4OCC(F)F)n[nH]c3c1)C(=O)N2 [Example 147, (1R,2S)-2-(3-{[5-(2,2-difluoroethoxy)-2-methylpyrimidin-4-yl]amino}-1H-indazol-6-yl)-5′-methoxyspiro[cyclopropane-1,3′-indol]-2′(1′H)-one] | 1300 nM | 483.0689 | 2292.2093 | 4.22 nM
3 | COc1ccc2c(c1)[C@]1(C[C@H]1c1ccc3c(Nc4ccc(C(=O)NNC(C)C)nc4OC)n[nH]c3c1)C(=O)N2 [Example 219, 6-methoxy-5-({6-[(1R,2S)-5′-methoxy-2′-oxo-1′,2′-dihydrospiro[cyclopropane-1,3′-indol]-2-yl]-1H-indazol-3-yl}amino)-N′-(propan-2-yl)pyridine-2-carbohydrazide] | 510 nM | 64.2571 | 763.5782 | 2.5 nM
4 | CCS(=O)(=O)c1ccc(OC)c(Nc2n[nH]c3cc([C@@H]4C[C@@]45C(=O)Nc4ccc(OC)cc45)ccc23)c1 [Example 175, (1R,2S)-2-{3-[5-(ethanesulfonyl)-2-methoxyanilino]-1H-indazol-6-yl}-5′-methoxyspiro[cyclopropane-1,3′-indol]-2′(1′H)-one] | 2210 nM | 8627.0664 | 14009.5265 | 3.57 nM
5 | COc1ccc2c(c1)[C@]1(C[C@H]1c1ccc3c(Nc4nc(C)nc(N5CCOCC5)c4OC)n[nH]c3c1)C(=O)N2 [Example 41, (1R,2S)-5′-methoxy-2-(3-{[5-methoxy-2-methyl-6-(morpholin-4-yl)pyrimidin-4-yl]amino}-1H-indazol-6-yl)spiro[cyclopropane-1,3′-indol]-2′(1′H)-one] | 844 nM | 471.4128 | 2257.47 | 2.71 nM
6 | COc1ccc2c(c1)[C@]1(C[C@H]1c1ccc3c(Nc4nc(C)cnc4OC)n[nH]c3c1)C(=O)N2 [Example 71, (1R,2S)-5′-methoxy-2-{3-[(3-methoxy-6-methylpyrazin-2-yl)amino]-1H-indazol-6-yl}spiro[cyclopropane-1,3′-indol]-2′(1′H)-one] | 989 nM | 38.67 | 420.9667 | 3.06 nM
7 | COc1ccc2c(c1)[C@]1(C[C@H]1c1ccc3c(Nc4nc(C5CCOC5)ncc4OC)n[nH]c3c1)C(=O)N2 (single isomer, unassigned) [Example 201] | 455 nM | 229.0739 | 485.6389 | 1.71 nM
8 | COc1ccc2c(c1)[C@]1(C[C@H]1c1ccc3c(Nc4nc(C)nc5c4OCC5)n[nH]c3c1)C(=O)N2 [Example 153, (1R,2S)-5′-methoxy-2-{3-[(2-methyl-6,7-dihydrofuro[3,2-d]pyrimidin-4-yl)amino]-1H-indazol-6-yl}spiro[cyclopropane-1,3′-indol]-2′(1′H)-one] | 876 nM | 123.6097 | 1254.4596 | 1.91 nM
9 | COc1ccc2c(c1)[C@]1(C[C@H]1c1ccc3c(Nc4nc(C)ccc4OC)n[nH]c3c1)C(=O)N2 [Example 88, (1R,2S)-5′-methoxy-2-{3-[(3-methoxy-6-methylpyridin-2-yl)amino]-1H-indazol-6-yl}spiro[cyclopropane-1,3′-indol]-2′(1′H)-one] | 1810 nM | 44.7979 | 1997.754 | 2.67 nM
10 | COc1ccc2c(c1)[C@]1(C[C@H]1c1ccc3c(Nc4ncnc(N5CC(O)C5)c4Cl)n[nH]c3c1)C(=O)N2C [Example 107, (1R,2S)-2-(3-{[5-chloro-6-(3-hydroxyazetidin-1-yl)pyrimidin-4-yl]amino}-1H-indazol-6-yl)-5′-methoxy-1′-methylspiro[cyclopropane-1,3′-indol]-2′(1′H)-one] | 730 nM | 174.4215 | 1455.295 | 5.7 nM
11 | COc1ccc2c(c1)[C@]1(C[C@H]1c1ccc3c(Nc4ncc(S(=O)(=O)N(C)C5(C)COC5)cc4OC)n[nH]c3c1)C(=O)N2 [Example 270, 5-methoxy-6-({6-[(1R,2S)-5′-methoxy-2′-oxo-1′,2′-dihydrospiro[cyclopropane-1,3′-indol]-2-yl]-1H-indazol-3-yl}amino)-N-methyl-N-(3-methyloxetan-3-yl)pyridine-3-sulfonamide] | 269 nM | 1790.7801 | 473.6 | 0.564 nM
12 | CNC(=O)c1ccc(Nc2n[nH]c3cc([C@@H]4C[C@@]45C(=O)Nc4ccc(OC)cc45)ccc23)c(OC)n1 [Example 191, 6-methoxy-5-({6-[(1R,2S)-5′-methoxy-2′-oxo-1′,2′-dihydrospiro[cyclopropane-1,3′-indol]-2-yl]-1H-indazol-3-yl}amino)-N-methylpyridine-2-carboxamide] | 494 nM | 84.9956 | 2416.5931 | 2.27 nM
13 | COc1ccc2c(c1)[C@]1(C[C@H]1c1ccc3c(Nc4cc(C(C)C)nnc4OC)n[nH]c3c1)C(=O)N2 [Example 101, (1R,2S)-5′-methoxy-2-(3-{[3-methoxy-6-(propan-2-yl)pyridazin-4-yl]amino}-1H-indazol-6-yl)spiro[cyclopropane-1,3′-indol]-2′(1′H)-one] | 2290 nM | 1002.648 | 1271.845 | 11.3 nM
14 | COc1ccc2c(c1)[C@]1(C[C@H]1c1ccc3c(Nc4ccc(C(=O)N(C)C(C)C)nc4OC)n[nH]c3c1)C(=O)N2 [Example 194, 6-methoxy-5-({6-[(1R,2S)-5′-methoxy-2′-oxo-1’,2′-dihydrospiro[cyclopropane-1,3′-indol]-2-yl]-1H-indazol-3-yl}amino)-N-methyl-N-(propan-2-yl)pyridine-2-carboxamide] | 126 nM | 103.7306 | 805.6995 | 0.965 nM
15 | COc1ccc2c(c1)[C@]1(C[C@H]1c1ccc3c(Nc4nc(OC)ncc4C)n[nH]c3c1)C(=O)N2 [Example 187, (1R,2S)-5′-methoxy-2-{3-[(2-methoxy-5-methylpyrimidin-4-yl)amino]-1H-indazol-6-yl}spiro[cyclopropane-1,3′-indol]-2′(1′H)-one] | 563 nM | 112.2793 | 109.5814 | 6.12 nM
